Experimental data as given in patent US8415364B2, “Method of preventing or treating glaucoma” (Duke University, priority 2003, dated 2013).

Legend:
[1] = system: Porcine primary trabecular meshwork (PTM) cells; assay: Actin stress fibers (phalloidin) and focal adhesion (vinculin) immunofluorescence staining in PTM cells; type: cell-based
Description: (§1) Porcine primary trabecular meshwork (PTM) and ciliary muscle cells (PCM) were cultured and treated with lovastatin or compactin at concentrations of 25 μM and 50 μM. Effects on actin stress fibers (phalloidin staining) and focal adhesion formation (vinculin) were evaluated by immunofluorescence staining. Urea/glycerol polyacrylamide gel electrophoresis and Western blot analysis were utilized to investigate the effects of statins on myosin light chain (MLC) phosphorylation. Changes in cell shape were recorded using the phase contrast microscope. A constant flow organ culture perfusion system was used to measure outflow facility in perfused porcine eye anterior segments.

[2] = system: Porcine primary trabecular meshwork (PTM) cells; assay: Cell shape by phase contrast microscopy in PTM cells; type: cell-based
Description: as §1

[3] = system: myosin light chain (MLC) phosphorylation; assay: MLC phosphorylation by urea/glycerol PAGE and Western blot in PTM cells; type: cell-based, porcine
Description: as §1

[4] = system: perfused porcine eye anterior segments; assay: Constant flow organ culture perfusion of porcine eye anterior segments
Description: as §1

[5] = PTM cells, within 24 hours of drug administration

SMILES | effect on lovastatin-induced changes in cell shape and cytoskeletal organization ([1]; supplementation of cell culture media containing lovastatin) | changes in cell shape ([2]; 25 μM and 50 μM) | reversibility of morphological changes ([2]; upon drug withdrawal) | effect on actin stress fibers [1, 5] | effect on focal adhesions [1, 5] | MLC phosphorylation [3] | drop in intraocular pressure ([4]; 100 μM, at 72 hours, control eyes 22% reduction, ongoing study) [%] | ability to decrease IOP ([4]; organ culture perfusion model)
CC(C)=CCC/C(C)=C/CC/C(C)=C/CC/C(C)=C/COP(=O)(O)OP(=O)(O)O [geranylgeranyl pyrophosphate] | completely reversed | – | – | – | – | – | – | –
CC[C@H](C)C(=O)O[C@H]1C[C@@H](C)C=C2C=C[C@H](C)[C@H](CC[C@@H]3C[C@@H](O)CC(=O)O3)[C@H]21 [lovastatin] | – | dramatic changes in cell shape | reversible upon drug withdrawal | actin depolymerization | loss of focal adhesions | marked reduction | 48 | ability to decrease IOP
